Laboratory results: patent US8691761B2, “Somatostatin receptor 2 antagonists” (priority 2006, dated 2014)
Values joined by “and” are separate entries in the source; they are usually repeats but may differ in a detail not shown here. Equal values may be shown once. “Also recorded” adds a separate entry of the source. Read-outs that look alike come from different tables or passages of the source. Bridge positions count the residues as written; N and C are the ends. Square brackets hold non-standard residues; d marks the D form. Peptide text beside a SMILES is read from it. * marks the point of attachment. ξ: configuration not given here. DOTA = O=C(O)CN1CCN(CC(=O)O)CCN(CC(=O)*)CCN(CC(=O)O)CC1; Phe(4-NO2) = N[C@@H](Cc1ccc([N+](=O)[O-])cc1)C(=O)O; dPhe(4-NHCONH2) = NC(=O)Nc1ccc(C[C@@H](N)C(=O)O)cc1; Phe(4-Cl) = N[C@@H](Cc1ccc(Cl)cc1)C(=O)O; ξDihydroorotoyl = O=C1CC(C(=O)*)NC(=O)N1; 2Nal = N[C@@H](Cc1ccc2ccccc2c1)C(=O)O; ξPhe(4-NH2) = Nc1ccc(CC(N)C(=O)O)cc1

Key:
human sst2A receptor = target: T1, human sst2A receptor (Homo sapiens, UniProt P30874); test: Immunofluorescence-based sst2 internalization assay in HEK-sst2 cells; type: cell-based; settings: n ≧ 2
T1 construct: expressed in transfected cells; host or cells: HEK293 (HEK-sst2)
Outline: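 HEK-sst2 cells treated with vehicle, 100 nM [Tyr^3]-octreotide, octreotide plus 100-fold excess test analogue, or test analogue alone at 10 μM. Receptor internalization visualized by immunofluorescence microscopy with sst2-specific antibody R2-88.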

sst2 = sst2 (Homo sapiens, UniProt P30874); test: Calcium release assay in HEK-sst2 cells (Fluo-4NW); type: cell-based; parameters: expressed in transfected cells; host or cells: HEK293 (HEK-sst2); settings: n ≧ 2
Protocol: Calcium release assay. Intracellular calcium release was measured in HEK-sst2 using the Fluo-4NW Calcium Assay kit as described previously (Magrys, et al. “The role of anti-alpha-enolase autoantibodies in pathogenicity of autoimmune-mediated retinopathy.” J. Clin. Immunol. 2007, 27, 181-192; Michel et al. “The Nef protein of human immunodeficiency virus is a broad-spectrum modulator of chemokine receptor cell surface levels that acts independently of classical motifs for receptor endocytosis and Galphai signaling.” Mol. Biol. Cell. 2006, 17, 3578-3590). In brief, HEK-sst2 cells were seeded (25,000 cells per well) in poly-D-lysine (20 μg/mL) coated 96 well plates and cultured for 1 day at 37° C. and 5% CO2 in culture medium. At the day of the experiment, the cells were washed with assay buffer (1×HBSS, 20 mM HEPES) containing 2.5 mM probenecid, and then loaded with 100 μL/well Fluo-4NW dye in assay buffer containing 2.5 mM probenecid for 30 min at 37° C. and 5% CO2 and then for further 30 min at room temperature. To measure the intracellular calcium mobilization after stimulation with the SRIF analogues to be tested, the dye-loaded cells were transferred to a SpectraMax M2^e (Molecular Devices, Sunnyvale, Calif.). Intracellular calcium mobilization was recorded in a kinetic for 60 sec at room temperature monitoring fluorescence emission at 520 nm (with λex=485 nm) in the presence of the analogues at the concentrations indicated. Maximum fluorescence (Fmax) was measured after the addition of 25 μM ionomycin. Baseline (control) measurements were taken for dye-loaded, untreated cells. Data are shown as percentage of Fmax (% Fmax) as reported previously. (Magrys, et al. J. Clin. Immunol. 2007, 27, 181-192; Michel et al. Mol. Biol. Cell. 2006, 17, 3578-3590). All experiments were repeated at least three times in triplicate.

HEK-sst2 tumors [1] = test: In vivo biodistribution of radiolabeled peptides in nude mice bearing HEK-sst2 tumors; settings: mouse, in vivo
Protocol: (§1) The following protocol was used to determine biodistribution
(§2) Confirmation that the transfected tumors were indeed expressing solely sst2 was obtained in resected tumor samples tested in vitro with somatostatin receptor autoradiography using subtype selective ligands.
(§3) The biodistribution of was studied at 4 h or 24 h after injection. The organs of interest were collected, blotted dry, weighed, their radioactivity measured and the percentage of injected activity per gram (% IA/g) calculated.

hSSTR4 = target: T2, hSSTR4 (Homo sapiens, UniProt P31391); test: Receptor autoradiography, displacement of 125I-[Leu8,D-Trp22,Tyr25]-SRIF-28 from membrane pellet sections; type: binding
T2 construct: expressed in transfected cells; host or cells: CHO-K1 or CCL39 cells

hSSTR2 = target: T3, hSSTR2 (Homo sapiens, UniProt P30874); test: as above; type: binding
T3 construct: expressed in transfected cells; host or cells: CHO-K1 or CCL39 cells

hSSTR5 = target: T4, hSSTR5 (Homo sapiens, UniProt P35346); test: as above; type: binding
T4 construct: expressed in transfected cells; host or cells: CHO-K1 or CCL39 cells

hSSTR3 = target: T5, hSSTR3 (Homo sapiens, UniProt P32745); test: as above; type: binding
T5 construct: expressed in transfected cells; host or cells: CHO-K1 or CCL39 cells

hSSTR1 = target: T6, hSSTR1 (Homo sapiens, UniProt P30872); test: as above; type: binding
T6 construct: expressed in transfected cells; host or cells: CHO-K1 or CCL39 cells

HEK-sst2 tumors [2] = settings: mouse, in vivo
Protocol: as §1, §2, §3

[3] = target: T7-epitope-tagged human sst2 (Homo sapiens, UniProt P30874); test: Quantitative assay for sst2 internalization (ELISA) in HEK-sst2 cells; type: cell-based; settings: FIG. 3
Protocol: Quantitative assay for sst2 internalization (ELISA) Receptor internalization was determined using an ELISA to quantitate T7-epitope-tagged human sst2 on the cell surface. HEK-sst2 cells were seeded on poly-D-lysine (20 μg/mL) coated 24-well plates (250,000 cells per well) in growth medium and cultured for 1 day at 37° C. and 5% CO2. […] After washing with DMEM-LH to remove unbound antibody, cells were incubated for 30 min at 37° C. and 5% CO2 either without or with the ligands added at the concentrations indicated. Incubations were terminated by placing the plates in an ice bath. Cells were then washed twice with cold PBS and fixed for 10 min at room temperature with 3% paraformaldehyde in PBS (pH 7.4). […] After 3 additional washes with PBS, antibody binding was measured by adding 0.3 mL substrate mix for horseradish peroxidase (ABTS). The OD405 was measured after an approximately 30 min incubation at room temperature. The amount of sst2 remaining at the cell surface after ligand treatment was calculated as the absorbance measured in treated cells expressed as a percentage of the absorbance in untreated cells. Nonspecific absorbance was determined in experiments in which HEK293-sst2 cells were incubated without the anti-T7 antibody. […]

[4] = Table 1, inhibition of radioligand binding to cloned human receptor, read-out: IC50 hSSTR4
[5] = Table 3, mean ± SEM when N ≧ 3, read-out: sst4 binding affinity (IC50)
[6] = Table 1, inhibition of radioligand binding to cloned human receptor, read-out: IC50 hSSTR2
[7] = Table 3, mean ± SEM when N ≧ 3, read-out: sst2 binding affinity (IC50)
[8] = Table 1, inhibition of radioligand binding to cloned human receptor, read-out: IC50 hSSTR5
[9] = Table 3, mean ± SEM when N ≧ 3, read-out: sst5 binding affinity (IC50)
[10] = Table 1, inhibition of radioligand binding to cloned human receptor, read-out: IC50 hSSTR3
[11] = Table 3, mean ± SEM when N ≧ 3, read-out: sst3 binding affinity (IC50)
[12] = Table 1, inhibition of radioligand binding to cloned human receptor, read-out: IC50 hSSTR1
[13] = Table 3, mean ± SEM when N ≧ 3, read-out: sst1 binding affinity (IC50)

T2 sequence (P31391 whole entry): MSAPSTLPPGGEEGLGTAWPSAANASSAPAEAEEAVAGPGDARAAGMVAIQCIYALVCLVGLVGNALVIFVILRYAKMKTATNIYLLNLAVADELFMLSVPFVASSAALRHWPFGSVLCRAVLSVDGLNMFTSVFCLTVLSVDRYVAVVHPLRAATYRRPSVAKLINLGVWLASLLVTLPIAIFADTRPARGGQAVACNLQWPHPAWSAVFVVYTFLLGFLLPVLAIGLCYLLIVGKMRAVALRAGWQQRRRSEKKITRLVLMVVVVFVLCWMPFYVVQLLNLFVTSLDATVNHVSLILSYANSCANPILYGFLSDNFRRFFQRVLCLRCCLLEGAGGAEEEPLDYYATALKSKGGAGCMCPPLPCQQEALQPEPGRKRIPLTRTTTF
T3 sequence (P30874 whole entry): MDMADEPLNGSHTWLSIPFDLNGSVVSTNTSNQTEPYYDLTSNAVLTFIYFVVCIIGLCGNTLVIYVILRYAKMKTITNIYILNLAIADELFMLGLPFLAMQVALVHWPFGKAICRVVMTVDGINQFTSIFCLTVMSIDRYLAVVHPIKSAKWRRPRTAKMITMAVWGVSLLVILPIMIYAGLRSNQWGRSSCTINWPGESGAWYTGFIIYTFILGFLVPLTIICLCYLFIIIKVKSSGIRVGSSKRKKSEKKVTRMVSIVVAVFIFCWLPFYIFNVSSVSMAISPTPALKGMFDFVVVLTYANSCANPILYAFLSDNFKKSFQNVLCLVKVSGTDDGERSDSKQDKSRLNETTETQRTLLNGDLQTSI
T1 sequence (P30874 whole entry): as above
sst2, sequence (P30874 whole entry): as above
T4 sequence (P35346 whole entry): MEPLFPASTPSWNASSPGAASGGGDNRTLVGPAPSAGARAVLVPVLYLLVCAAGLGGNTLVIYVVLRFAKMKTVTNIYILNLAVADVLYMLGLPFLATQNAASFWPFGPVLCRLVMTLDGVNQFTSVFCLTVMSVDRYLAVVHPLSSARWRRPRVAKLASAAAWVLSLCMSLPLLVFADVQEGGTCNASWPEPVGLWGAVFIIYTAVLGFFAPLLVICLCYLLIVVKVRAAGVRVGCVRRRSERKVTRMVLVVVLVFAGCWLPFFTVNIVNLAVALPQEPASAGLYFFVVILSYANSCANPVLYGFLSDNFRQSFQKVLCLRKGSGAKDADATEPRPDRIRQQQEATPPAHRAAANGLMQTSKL
T6 sequence (P30872 whole entry): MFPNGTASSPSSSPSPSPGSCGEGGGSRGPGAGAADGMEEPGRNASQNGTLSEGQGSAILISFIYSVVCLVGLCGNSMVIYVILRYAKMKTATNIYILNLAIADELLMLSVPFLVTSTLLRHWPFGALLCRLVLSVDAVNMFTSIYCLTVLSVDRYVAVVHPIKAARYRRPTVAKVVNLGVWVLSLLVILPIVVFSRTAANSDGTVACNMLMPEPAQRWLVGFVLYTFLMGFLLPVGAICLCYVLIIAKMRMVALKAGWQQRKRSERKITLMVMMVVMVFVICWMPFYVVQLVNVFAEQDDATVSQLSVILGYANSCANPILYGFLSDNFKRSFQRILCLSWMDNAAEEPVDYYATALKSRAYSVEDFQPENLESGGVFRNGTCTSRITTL
T5 sequence (P32745 whole entry): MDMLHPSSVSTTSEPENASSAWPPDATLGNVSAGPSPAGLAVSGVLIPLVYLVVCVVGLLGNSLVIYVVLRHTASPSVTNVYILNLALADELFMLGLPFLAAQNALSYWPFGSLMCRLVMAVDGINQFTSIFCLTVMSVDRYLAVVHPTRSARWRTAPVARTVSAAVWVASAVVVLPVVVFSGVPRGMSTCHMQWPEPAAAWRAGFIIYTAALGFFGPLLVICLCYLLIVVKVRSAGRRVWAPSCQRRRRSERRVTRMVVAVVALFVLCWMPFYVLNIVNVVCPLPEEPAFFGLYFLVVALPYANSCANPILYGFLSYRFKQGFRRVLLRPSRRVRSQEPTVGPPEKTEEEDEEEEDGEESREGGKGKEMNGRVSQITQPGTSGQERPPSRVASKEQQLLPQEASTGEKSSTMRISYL
T7-epitope-tagged human sst2, sequence (P30874 whole entry): as the sequence (P30874 whole entry) above

Row | SMILES | sst2-internalization tested in vitro in HEK-sst2 cells (function) (human sst2A receptor) | Calcium release tested in vitro in HEK-sst2 cells (function) (sst2) | tumor to kidney ratio (in words) (HEK-sst2 tumors [1]) | IC50 (hSSTR4; [4]) [nM] | IC50 (hSSTR4; [5]) [nM] | IC50 (hSSTR2; [6]) [nM] | IC50 (hSSTR2; [7]) | IC50 (hSSTR5; [8]) [nM] | IC50 (hSSTR5; [9]) [nM] | IC50 (hSSTR3; [10]) [nM] | IC50 (hSSTR3; [11]) [nM] | IC50 (hSSTR1; [12]) [nM] | IC50 (hSSTR1; [13]) [nM] | sst2 binding affinity relative to SRIF-28 (hSSTR2) | tumor to kidney ratio (in words) (HEK-sst2 tumors [2]) | function in the ELISA internalization assay [3]
1 | C[C@@H](O)[C@@H]1NC(=O)[C@H](CCCCN)NC(=O)[C@@H](Cc2ccc(NC(N)=O)cc2)NC(=O)[C@H](Cc2ccc(O)cc2)NC(=O)[C@H](NC(=O)[C@H](Cc2ccc([N+](=O)[O-])cc2)NC(=O)CN2CCN(CC(=O)O)CCN(CC(=O)O)CCN(CC(=O)O)CC2)CSSC[C@@H](C(=O)N[C@@H](Cc2ccc3ccccc3c2)C(N)=O)NC1=O [Peptide No. 5, DOTA-pNO2Phe-c[DCys-Tyr-DAph(Cbm)-Lys-Thr-Cys]-2Nal-NH2] ({DOTA}-[Phe(4-NO2)][dC]Y[dPhe(4-NHCONH2)]KTC[2Nal]-NH2; disulfide 2-7) | Antagonist | Antagonist | excellent tumor to kidney ratio | > 1000 | > 1000 | 1.5 | 1.3 nM | > 1000 | > 1000 | > 1000 | > 1000 | > 1000 | > 1000 | – | – | –
2 | C[C@@H](O)[C@@H]1NC(=O)[C@H](CCCCN)NC(=O)[C@@H](Cc2ccc(NC(N)=O)cc2)NC(=O)[C@H](Cc2ccc(O)cc2)NC(=O)[C@H](NC(=O)[C@H](Cc2ccc([N+](=O)[O-])cc2)NC(=O)CN2CCN(CC(=O)O)CCN(CC(=O)O)CCN(CC(=O)O)CC2)CSSC[C@@H](C(=O)N[C@H](Cc2ccc(O)cc2)C(N)=O)NC1=O [Peptide No. 3, DOTA-pNO2Phe-c[DCys-Tyr-DAph(Cbm)-Lys-Thr-Cys]-DTyr-NH2] ({DOTA}-[Phe(4-NO2)][dC]Y[dPhe(4-NHCONH2)]KTC[dY]-NH2; disulfide 2-7) | antagonistic property; also recorded: Antagonist | Antagonist | – | > 1000 | > 1000 | 0.53 ± 0.06 | 0.75 nM and < 1 nM | > 1000 | > 1000 | > 1000 | > 1000 | > 1000 | > 1000 | three to four-fold greater | excellent tumor to kidney ratio | –
3 | C[C@@H](O)[C@@H]1NC(=O)[C@H](CCCCN)NC(=O)[C@@H](Cc2ccc(NC(N)=O)cc2)NC(=O)C(Cc2ccc(NC(=O)C3CC(=O)NC(=O)N3)cc2)NC(=O)[C@H](NC(=O)[C@H](Cc2ccc(Cl)cc2)NC(=O)CN2CCN(CC(=O)O)CCN(CC(=O)O)CCN(CC(=O)O)CC2)CSSC[C@@H](C(=O)N[C@@H](Cc2ccc3ccccc3c2)C(N)=O)NC1=O (stereo partly drawn) [Peptide No. 30, DOTA-Cpa-c[DCys-Aph(Hor)-DAph(Cbm)-Lys-Thr-Cys]-2Nal-NH2] ({DOTA}-[Phe(4-Cl)][dC][ξPhe(4-NH2)](ξDihydroorotoyl)[dPhe(4-NHCONH2)]KTC[2Nal]-NH2; disulfide 2-7) | Antagonist | Antagonist | excellent tumor to kidney ratio | – | – | – | – | – | – | – | – | – | – | – | – | –
4 | C[C@@H](O)[C@@H]1NC(=O)[C@H](CCCCN)NC(=O)[C@@H](Cc2c[nH]c3ccccc23)NC(=O)[C@H](Cc2ccc(O)c(I)c2)NC(=O)[C@H](NC(=O)[C@H](Cc2ccc([N+](=O)[O-])cc2)NC(=O)CN2CCN(CC(=O)O)CCN(CC(=O)O)CCN(CC(=O)O)CC2)CSSC[C@@H](C(=O)N[C@H](Cc2ccc(O)cc2)C(N)=O)NC1=O [Peptide No. 32, DOTA-pNO2Phe-c[DCys-ITyr-DTrp-Lys-Thr-Cys]-DTyr-NH2] | antagonistic property; also recorded: Antagonist | Antagonist | excellent tumor to kidney ratio | – | – | – | – | – | – | – | – | – | – | – | – | antagonistic properties
